B1: matrix protein 1 (M1) N-terminal domain, residues 1-165, of influenza A virus H1N1 A/WSN/33 (domain or fragment)
chain: MSLLTEVETYVLSIVPSGPLKAEIAQRLEDVFAGKNTDLEVLMEWLKTRPILSPLTKGILGFVFTLTVPSERGLQRRRFVQNALNGNGDPNNMDKAVKLYRKLKREITFHGAKEIALSYSAGALASCMGLIYNRMGAVTTEVAFGLVCATCEQIADSQHRSHRQM
notes: also called N1-165-domain of WSN/33; biotinylated M1

Legend:
[1] = biological target: T1, M1 (matrix protein 1), recombinant N1-165 domain of WSN/33 (Influenza A virus (A/Wilson-Smith/1933(H1N1)), UniProt P05777); experiment: bio-layer interferometry, inhibition of M1-M1 self-association; type: binding
T1 construct: gene M

[2] = biological target: T1, M1 (matrix protein 1), recombinant N1-165 domain of WSN/33 (Influenza A virus (A/Wilson-Smith/1933(H1N1)), UniProt P05777); experiment: surface plasmon resonance, biotinylated M1 on NeutrAvidin chip; type: binding
[3] = biological target: the molecule itself; experiment: SPR; […], room temperature, pH 7.4; […]

Molecule	IC50 [1]	Kd [2]	Kd [3]
CCCc1c(OCCCOc2ccc(OCC(=O)O)cc2)ccc(C(C)=O)c1O [PHE]	~6000 nM	870 ± 150 nM	
B1			0.05 ± 0.03 nM

— paper PMC5004101, “Broad Spectrum Anti-Influenza Agents by Inhibiting Self-Association of Matrix Protein 1” (Scientific Reports, 2016)
